{"source": "patent US9884850B2", "about": "“Pyrimidine hydroxy amide compounds as HDAC6 selective inhibitors” (Acetylon Pharmaceuticals, Inc., priority 2014, dated 2018)", "system": "taxol induced neuropathic pain model in rats", "experiment": "Taxol induced neuropathic pain study in rats (Von Frey testing)", "format": "in vivo, rat", "details": "taxol treated rats, 1, 3, 10 mg/kg PO b.i.d.", "experimental": "This study included a histology endpoint in addition to the von Frey testing for paw sensitivity.\nNeuropathic pain is induced by a 0.5 ml/kg injection of Taxol (2 mg/kg) administered IP on days 0-12. The development of neuropathic pain is confirmed by measuring mechanical allodynia (Von Frey test) on study day 13.\nAllodynic response to tactile stimulation is assessed using the Von Frey apparatus (Touch Test®).\nThe rat will be placed in an enclosure and positioned on a metal mesh surface, but allowed to move freely. The rats' cabins are covered with red cellophane to diminish environmental disturbances. The test begins after a cessation of exploratory behavior. The set of Von Frey monofilaments provide an approximate logarithmic scale of actual force and a linear scale of perceived intensity.\nThe operating principle: when the tip of a fiber of given length and diameter is pressed against the skin at right angles, the force of application increases as long as the researcher continues to advance the probe until the fiber bends. After the fiber bends, the probe continues to advance, causing the fiber to bend more, but without additional force being applied. […] The Touch Test™ Sensory Evaluator can be used on the plantar surfaces of the rat's foot. The animal indicates sensation by pulling back its paw. […]", "note": "Entries after “also recorded” stand apart in the source; their conditions may differ.", "data": [{"smiles": "O=C(NO)c1cnc(NC2(c3ccccc3)CCC(F)(F)CC2)nc1", "note": "[Compound 003]", "values": [{"measurement": "Effect on nociception / tactile allodynia (Von Frey)", "value": "completely reversed nociception; also recorded: reduced tactile allodynia"}]}]}
